Laboratory results from patent US8846567B2, “Active compound combinations having insecticidal and acaricidal properties” (priority 2009, dated 2014).
Like-named read-outs stand apart in the source and are kept apart here.

Tests used:
Type in all cases: in vivo
Myzus persicae = conditions: 0.8 g/ha, single active compound
Source text: (§1) If the actual insecticidal or acaricidal kill rate exceeds the calculated value, the kill of the combination is superadditive, i.e. a synergistic effect is present. In this case, the actually observed kill rate must exceed the value calculated using the above formula for the expected kill rate (E).
(§2) • Solvents: 78 parts by weight of acetone 1.5 parts by weight of dimethylformamide • Emulsifier: 0.5 part by weight of alkylaryl polyglycol ether
After the desired period of time, the kill in % is determined 100% means that all of the aphids have been killed; 0% means that none of the aphids have been killed. The kill rates determined are entered into Colby's formula (see above).

Spodoptera frugiperda = Spodoptera frugiperda test (sprayed cabbage leaves); conditions: single active compound
Source text: The expected action for a given combination of two active compounds can be calculated according to S. R. Colby, Weeds 15 (1967), 20-22, as follows:
as §1, §2
To produce a suitable preparation of active compound, 1 part by weight of active compound is mixed with the stated amount of solvent and emulsifier, and the concentrate is diluted with emulsifier-containing water to the desired concentration.
Cabbage leaves (Brassica oleracea) are treated by being sprayed with the preparation of active compound of the desired concentration and are populated with larvae of the armyworm (Spodoptera frugiperda) while the leaves are still moist.
After the desired period of time, the kill in % is determined 100% means that all caterpillars have been killed; 0% means that none of the caterpillars have been killed. The kill rates determined are entered into Colby's formula (see above).

Phaedon cochleariae = tested on: Phaedon cochleariae
Source text: as §1, §2
After the desired period of time, the kill in % is determined 100% means that all beetle larvae have been killed; 0% means that none of the beetle larvae have been killed. The kill rates determined are entered into Colby's formula (see above).

[1] = 20 g/ha, after 6 d, single active compound
[2] = 100 g/ha, after 6 d, single active compound
[3] = 20 g/ha, single active compound
[4] = 4 g/ha, after 6 d, single active compound

Compound | Kill in % after 6 d (Myzus persicae) [%] | Kill in % after 6 d (Spodoptera frugiperda; 20 g/ha) [%] | Kill In % after 6d (Phaedon cochleariae; [1]) [%] | Kill In % after 6d (Phaedon cochleariae; [2]) [%] | Kill In % after 2d (Phaedon cochleariae; 4 g/ha, single active compound) [%] | Kill In % after 2d (Phaedon cochleariae; [3]) [%] | Kill in % after 6 d (Spodoptera frugiperda; 4 g/ha) [%] | other results
COP(N)(=O)SC (stereo not drawn) [methamidophos] | 0 | 67 |  |  |  |  |  | 
CCOP(=O)(NC(C)C)Oc1ccc(SC)c(C)c1 (stereo not drawn) [fenamiphos] | 0 |  |  |  |  |  |  | 
COP(=O)(NC(C)=O)SC (stereo not drawn) [acephate] | 0 |  | 0 | 0 |  |  |  | 
CCOP(=S)(OCC)Oc1nc(Cl)c(Cl)cc1Cl [chlorpyriphos, chlorpyrifos] |  |  |  |  | 0 | 50 | 67 | 
CCCSP(=O)(OCC)SCCC [ethoprofos, ethoprophos] |  |  |  |  |  |  |  | Kill In % after 6d (Phaedon cochleariae; in vivo): 0%
O=C1C=C(N(Cc2ccc(Cl)nc2)CC(F)F)CO1 [compound (I-5), 4-{[(6-chloropyrid-3-yl)methyl](2,2-difluoroethyl)amino}furan-2(5H)-one] |  |  |  | 67 |  | 17 | 0 | Kill In % after 6d (Phaedon cochleariae; [4]): 0%
O=C1C=C(N(CCF)Cc2ccc(Cl)nc2)CO1 [compound (I-4), 4-{[(6-chloropyrid-3-yl)methyl](2-fluoroethyl)amino}furan-2(5H)-one] |  | 0 |  | 50 | 0 |  |  | Kill In % after 6d (Phaedon cochleariae; [4]): 0%; Kill In % after 2d (Phaedon cochleariae; 100 g/ha, single active compound): 50%; Kill in % after 1d (Myzus persicae): 20%
CN(Cc1cnc(Cl)c(F)c1)C1=CC(=O)OC1 [compound (I-6), 4-{[(6-chloro-5-fluoropyrid-3-yl)methyl](methyl)amino}furan-2(5H)-one] | 80 | 0 | 17 |  |  | 0 | 0 | 
methiocarb | 0 |  |  |  | 17 |  |  | 
CS/C(C)=N/OC(=O)N(C)SN(C)C(=O)O/N=C(\C)SC [thiodicarb] | 0 | 83 | 0 | 0 |  |  | 50 | Kill in % after 1d (Myzus persicae): 0%
